This is an account of results in US20070231256A1, “Compositions and methods for detecting and treating tumors containing acidic areas” (priority 2006, published 2007).

Each structure is given as a SMILES string. Several values for one entry are separate records, joined by “and”; a condition that tells them apart may be missing. Identical values can stand only once.

The nature of data set [1]: Henderson-Hasselbalch calculation of percent in acid form. The note with it: calculated; for Percent in Acid Form at pH 6.4: pH 6.4 (acidic areas of tumors); for Percent in Acid Form at pH 7.4: pH 7.4 (normal tissues). An excerpt:
The interstitial space in normal tissues is generally at or very near pH 7.4, and in acidic areas of tumors a pH of around 6.4 is fairly typical or readily achievable by known methods. If one knows the pKa value of an acid substance (pKa is the pH at which the acid moiety is half ionized in aqueous solution) one can use the Henderson-Hasselbalch equation (pH=pKa+log [A−]/[HA]) to calculate what fraction of that substance will be in the acid form at any selected pH. […] It should be noted that for carboxyl-containing substances whose acid forms are water soluble, the pKa and pS values are quite similar.
In these calculations the Henderson-Hasselbalch equation was used to calculate the relative concentration of salt and acid forms at a given pH for a substance having acid moieties with a specified pKa or pS value. Then a binomial expansion was used to calculate the concentration of the all-acid form for an onco tool containing 2 or 3 pH-switch components.

The next data set deals with tumors. The note with it: tumor-bearing mice, reduction of about 0.3 pH units in the tumors; cited from earlier work.
A short description of data set [2]: Titration of sodium salts with HCl in aqueous solution. How it is done: In regard to initial testing, a simple pH titration of the prospective pH-switch structure in physiological saline is fast and easy and provides useful information about the key properties one is attempting to achieve.
Typically new structures that may be suitable as advanced pH-switch components are first assessed for their pS value. This entails preparing the sodium salt form of the structure and dissolving it at a concentration of 20 milliMolar in 15 ml of 0.15 Molar NaCl (deareated to remove CO2). […] A plot of pH versus volume of added HCl affords the pS value.
The sodium salts of compounds shown in FIG. 11a (designed to form internal acid-specific H-bond) and 11b (designed to form non-acid-specific H-bonds) were titrated in aqueous solution.

For the compound `CCC(=O)O` [propionic acid], in data set [1], the “Percent in Acid Form at pH 6.4” value is given as 2.9% and the “Percent in Acid Form at pH 7.4” value is reported as 0.3%.

As to `O=C(O)CCCc1ccc(N(CCCl)CCCl)cc1` [Chlorambucil], in data set [1], the “Percent in Acid Form at pH 6.4” value is recorded as 20.1% and the “Percent in Acid Form at pH 7.4” value was 2.4%. Besides, the “improvement in tumor growth delay” value in the data set on tumors is given as 1.7 fold.

For the compound `CCC[N+]1([O-])CCC(C(=O)O)CC1` (stereo not shown) [structure iii in FIG. 15b, N-oxide of N-propylisonipocotic acid], the “minimum of first derivative of the titration curve (pH)” value in data set [2] (titrated in water / aqueous solution) was ~4.0 and ~5.6.

The term pKa denotes the pH at which an ionisable group is half protonated. In turn, `CCCCCCCC(=O)O` [octanoic acid] returned a pKa in data set [2] of 5.5.
